Experiments:
[1] = system: Rabbit Psoas myofibrils (skeletal myosin ATPase); assay: Myofibril ATPase assay, rabbit psoas (skeletal) myofibrils; type: biochemical; details: rabbit psoas myofibrils
In short: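 Values derive from concentration–response fits of NADH consumption rates at 340 nm, normalized to vehicle-only wells, as Y75 or Y125. Myofibril ATP turnover was linked to NADH via PK/LDH in Ca/EGTA-buffered PIPES, pH 7.0, and read over 75 min.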

[2] = target: T1, Porcine ventricle myofibrils (ventricular myosin ATPase) (Sus scrofa, UniProt P79293); assay: Myofibril ATPase assay, porcine ventricle myofibrils; type: biochemical, porcine (Yucatan minipigs); details: porcine ventricle myofibrils
T1 construct: Myofibrils from porcine cardiac muscle was isolated from the left ventricle of Yucatan minipigs; tissue Exemplar Genetics; host or cells: left ventricle of Yucatan minipigs, myofibrils prepared in house
T1 sequence (P79293 whole entry): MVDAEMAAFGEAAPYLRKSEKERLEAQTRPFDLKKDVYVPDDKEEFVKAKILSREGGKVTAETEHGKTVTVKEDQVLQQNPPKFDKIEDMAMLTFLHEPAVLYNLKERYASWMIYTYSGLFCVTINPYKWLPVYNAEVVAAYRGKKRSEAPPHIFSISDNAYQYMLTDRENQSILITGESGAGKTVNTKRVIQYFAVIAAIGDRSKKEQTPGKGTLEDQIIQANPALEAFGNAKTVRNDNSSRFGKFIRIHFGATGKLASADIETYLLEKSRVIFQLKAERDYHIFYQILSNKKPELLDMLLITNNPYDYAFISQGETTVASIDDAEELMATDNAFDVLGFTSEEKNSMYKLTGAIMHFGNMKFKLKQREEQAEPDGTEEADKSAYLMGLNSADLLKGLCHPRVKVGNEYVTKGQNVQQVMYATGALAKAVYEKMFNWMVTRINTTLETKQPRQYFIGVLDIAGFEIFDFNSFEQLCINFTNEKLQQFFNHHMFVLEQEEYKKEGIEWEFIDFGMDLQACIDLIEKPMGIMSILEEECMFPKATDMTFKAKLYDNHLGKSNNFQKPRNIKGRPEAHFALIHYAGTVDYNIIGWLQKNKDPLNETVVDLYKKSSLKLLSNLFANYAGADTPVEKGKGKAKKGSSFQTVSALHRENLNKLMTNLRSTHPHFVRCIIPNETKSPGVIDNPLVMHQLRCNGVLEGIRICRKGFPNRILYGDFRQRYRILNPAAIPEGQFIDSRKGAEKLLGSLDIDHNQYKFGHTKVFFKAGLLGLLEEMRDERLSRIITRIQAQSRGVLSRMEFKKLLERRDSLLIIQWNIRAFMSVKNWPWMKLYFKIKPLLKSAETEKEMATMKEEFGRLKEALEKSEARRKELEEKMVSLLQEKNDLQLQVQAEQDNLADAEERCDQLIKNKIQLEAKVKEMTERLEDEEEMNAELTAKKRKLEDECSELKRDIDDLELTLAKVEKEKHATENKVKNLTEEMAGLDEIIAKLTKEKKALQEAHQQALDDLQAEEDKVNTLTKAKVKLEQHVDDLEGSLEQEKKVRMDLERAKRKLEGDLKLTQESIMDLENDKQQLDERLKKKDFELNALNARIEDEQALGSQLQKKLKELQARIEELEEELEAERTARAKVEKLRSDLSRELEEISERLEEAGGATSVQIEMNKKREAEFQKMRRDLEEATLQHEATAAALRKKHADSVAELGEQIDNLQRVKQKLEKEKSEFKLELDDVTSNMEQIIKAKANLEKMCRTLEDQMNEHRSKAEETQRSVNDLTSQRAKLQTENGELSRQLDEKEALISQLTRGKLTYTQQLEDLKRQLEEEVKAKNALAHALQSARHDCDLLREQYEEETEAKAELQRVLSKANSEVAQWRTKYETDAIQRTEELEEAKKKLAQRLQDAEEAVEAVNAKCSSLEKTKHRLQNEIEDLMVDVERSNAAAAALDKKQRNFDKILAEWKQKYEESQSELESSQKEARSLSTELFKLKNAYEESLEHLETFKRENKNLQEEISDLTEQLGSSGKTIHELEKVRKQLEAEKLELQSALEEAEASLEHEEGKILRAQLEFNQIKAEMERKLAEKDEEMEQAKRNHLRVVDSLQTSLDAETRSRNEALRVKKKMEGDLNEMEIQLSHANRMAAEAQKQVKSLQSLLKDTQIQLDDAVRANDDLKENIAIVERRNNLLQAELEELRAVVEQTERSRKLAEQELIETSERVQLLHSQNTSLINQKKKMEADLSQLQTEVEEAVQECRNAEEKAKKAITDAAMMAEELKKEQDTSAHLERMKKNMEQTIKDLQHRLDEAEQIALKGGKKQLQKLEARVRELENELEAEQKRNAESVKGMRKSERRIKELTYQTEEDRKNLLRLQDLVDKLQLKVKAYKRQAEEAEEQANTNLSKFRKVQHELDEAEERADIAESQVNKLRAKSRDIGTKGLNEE
In short: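 Test compounds acted on myofibrils isolated from the left ventricle of Yucatan minipigs. ADP formation was coupled via pyruvate kinase/lactate dehydrogenase to NADH oxidation, monitored kinetically at 340 nm over 75 min. Rates relative to vehicle were fitted with a 4-parameter logistic model, reported as Y75 (25% inhibition) or Y125 (activation) concentrations.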

[3] = system: Porcine atria myofibrils (atrial myosin ATPase); assay: Myofibril ATPase assay, porcine atria myofibrils; type: biochemical; details: porcine atria myofibrils
In short: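 Atrial myofibril ATPase measured by NADH-coupled absorbance at 340 nm; vehicle-normalized slopes fitted to give Y75 or Y125 values.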

[4] = Y75 value (75% activity relative to no compound)

Skeletal EC25 ([1]; Y75 value) | Ventricular EC25 ([2]; Y75 value) | Atrial EC25 [3, 4] | Skeletal EC25 ([1]; Y75 value (no ‡ mark)) | Ventricular EC25 ([2]; Y75 value (no ‡ mark)) | Atrial EC25 ([3]; Y75 value (no ‡ mark)) | Structure (SMILES)
100.00 µM | 63.55 µM | 100.00 µM |  |  |  | C[C@H](NC(=O)[C@@H](C)c1cc2nc(C#N)ccc2[nH]c1=O)c1ccc(F)cc1F (single isomer, unassigned) [compound 258]
0.55 µM | 14.65 µM | 0.59 µM |  |  |  | Cc1nccc2[nH]c(=O)c([C@H](C)C(=O)N[C@H](C)c3ncc(C#N)cc3F)c(C)c12 (single isomer, unassigned) [compound 192]
 |  |  | 2.27 µM | 18.26 µM | 4.48 µM | Cc1c(C2(C(=O)N[C@@H](C)c3ncc(C#N)cn3)CC2)c(=O)[nH]c2cccc(C#N)c12 (single isomer, unassigned) [compound 2544]
 |  |  | 100.00 µM | 100.00 µM | 5.79 µM | Cc1nnccc1[C@@H](C)NC(=O)Cc1c(C)c2cc(F)ccc2[nH]c1=O [compound 1090]
100.00 µM | 100.00 µM | 100.00 µM |  |  |  | Cc1ccccc1[C@@H](C)NC(=O)Cc1c(C)c2c(C)nccc2[nH]c1=O (single isomer, unassigned) [compound 326]
0.01 µM | 0.09 µM | 0.05 µM |  |  |  | Cc1nccc2[nH]c(=O)c(CC(=O)N[C@@H](C)c3ccc(C#N)cc3F)c(Cl)c12 [compound 152]
 |  |  | 14.83 µM | 100.00 µM | 100.00 µM | Cc1c(CC(=O)N[C@H](C)c2ccc(F)cn2)c(=O)[nH]c2cccc(F)c12 [compound 43]
0.01 µM | 0.14 µM | 0.03 µM |  |  |  | Cc1c(CC(=O)N[C@@H](C)c2ccc(C#N)cc2F)c(=O)[nH]c2ccc(C(F)(F)F)nc12 (single isomer, unassigned) [compound 209]
 |  |  | 0.02 µM | 0.41 µM | 0.47 µM | C[C@H](NC(=O)Cc1c(C2CC2)c2cc(F)ccc2[nH]c1=O)c1ncc(C#N)cc1F [compound 40]
0.07 µM | 2.65 µM | 0.13 µM |  |  |  | C[C@H](NC(=O)Cc1cc2nc(F)ccc2[nH]c1=O)c1ccc(F)cc1F [compound 392]
 |  |  | 0.25 µM | 0.79 µM | 0.23 µM | C[C@@H](NC(=O)C(F)(F)c1cc2c(F)c(F)ccc2[nH]c1=O)c1nccc(C#N)n1 (single isomer, unassigned) [compound 2561]
7.2 µM | 100 µM | 100 µM |  |  |  | Cc1nccc2[nH]c(=O)c(CC(=O)N[C@H](CO)c3ccc(F)cc3F)c(C)c12 [compound 498]
100.00 µM | 63.17 µM | 28.27 µM |  |  |  | Cc1nccc2[nH]c(=O)c(CC(=O)N[C@H](C)c3ncc(C#N)cn3)c(C)c12 [compound 482]
20.28 µM | 100.00 µM | 100.00 µM |  |  |  | Cc1nccc2[nH]c(=O)c(CC(=O)N[C@H]3CCc4cc(C#N)cnc43)c(C)c12 (single isomer, unassigned) [compound 234]
100.00 µM | 100.00 µM | 100.00 µM |  |  |  | Cc1nccc2[nH]c(=O)c(CC(=O)N[C@H](C)c3cccc(O)c3)c(C)c12 (single isomer, unassigned) [compound 330]
 |  |  | 37.46 µM | 100.00 µM | 100.00 µM | Cc1c(C2(C(=O)N[C@@H](C)c3nccc(C#N)n3)CC2)c(=O)[nH]c2ccc(F)cc12 (single isomer, unassigned) [compound 4842]
 |  |  | 0.03 µM | 0.28 µM | 0.12 µM | Cc1c(CC(=O)N[C@@H](C)c2ncc(C#N)cc2F)c(=O)[nH]c2cccc(C#N)c12 [compound 1081]
1.57 µM | 100.00 µM | 100.00 µM |  |  |  | Cc1nccc2[nH]c(=O)c(CC(=O)N[C@@H](C)c3ccccn3)c(C)c12 (single isomer, unassigned) [compound 325]
 |  |  | 0.79 µM | 34.88 µM | 0.51 µM | Cc1c(C(F)(F)C(=O)N[C@@H]2COc3cc(C#N)cc(F)c32)c(=O)[nH]c2ccc(F)cc12 (single isomer, unassigned) [compound 2553]

Skeletal EC25 ([1]; Y75 value) | Ventricular EC25 ([2]; Y75 value) | Atrial EC25 [3, 4] | Skeletal EC25 ([1]; Y75 value (no ‡ mark)) | Ventricular EC25 ([2]; Y75 value (no ‡ mark)) | Atrial EC25 ([3]; Y75 value (no ‡ mark)) | Structure (SMILES)
0.11 µM | 2.97 µM | 0.30 µM |  |  |  | Cc1nccc2[nH]c(=O)c([C@@H](C)C(=O)N[C@@H](C)c3ccc(C#N)cc3F)c(C)c12 (single isomer, unassigned) [compound 195]
100.00 µM | 100.00 µM | 100.00 µM |  |  |  | C[C@@H](NC(=O)Cc1c(C(F)(F)F)c2c(C3CC3)nccc2[nH]c1=O)c1ccc(C#N)cn1 (single isomer, unassigned) [compound 3005]
0.02 µM | 0.20 µM | 0.05 µM |  |  |  | Cc1c(C(F)(F)C(=O)N[C@@H](C)c2ccc(F)cc2F)c(=O)[nH]c2ccnc(Cl)c12 [compound 401]
100.00 µM | 100.00 µM | 100.00 µM |  |  |  | Cc1nccc2[nH]c(=O)c(CC(=O)NC[C@H](CO)c3ccccc3)c(C)c12 [compound 493]
0.03 µM | 0.64 µM | 0.15 µM |  |  |  | Cc1nccc2[nH]c(=O)c(CC(=O)N[C@@H](C)c3ccc(F)cc3F)c(C)c12 [compound 433]
1.22 µM | 100.00 µM | 5.87 µM |  |  |  | Cc1nccc2[nH]c(=O)c([C@H](C)C(=O)N[C@@H](C)c3ncc(C#N)cc3F)c(C)c12 (single isomer, unassigned) [compound 194]
 |  |  | 0.04 µM | 0.52 µM | 0.07 µM | Cc1c(CC(=O)N[C@@H](C)c2cnc(C#N)nc2)c(=O)[nH]c2cc(F)c(F)cc12 (single isomer, unassigned) [compound 2075]
1.31 µM | 100.00 µM | 94.54 µM |  |  |  | COc1nccc2[nH]c(=O)c([C@@H](C)C(=O)N[C@@H](C)c3ccc(F)cc3F)c(C(F)(F)F)c12 (single isomer, unassigned) [compound 425]
0.17 µM | 3.01 µM | 0.86 µM |  |  |  | Cc1nccc2[nH]c(=O)c(CC(=O)N[C@@H](CO)c3ncc(C#N)cc3F)c(C)c12 (single isomer, unassigned) [compound 248]
 |  |  | 100.00 µM | 100.00 µM | 5.78 µM | Cc1cc(C#N)ccc1[C@@H](C)NC(=O)Cc1c(O)c2cc(F)c(F)cc2[nH]c1=O [compound 1088]
2.55 µM | 3.02 µM | 1.99 µM |  |  |  | Cc1nccc2[nH]c(=O)c(CC(=O)N[C@H](C)c3ccc(C#N)cc3F)c(F)c12 [compound 148]
100.00 µM | 100.00 µM | 100.00 µM |  |  |  | C[C@H](NC(=O)[C@H](C)c1cc2nc(C#N)ccc2[nH]c1=O)c1ccc(F)cc1F (single isomer, unassigned) [compound 257]
 |  |  | 0.27 µM | 0.49 µM | 0.33 µM | CCc1c(CC(=O)N[C@H](C)c2ncc(C#N)cn2)c(=O)[nH]c2ccc(F)c(C)c12 (single isomer, unassigned) [compound 2001]
0.09 µM | 2.51 µM | 0.31 µM |  |  |  | Cc1nccc2[nH]c(=O)c(CC(=O)N[C@@H]3CNc4cc(F)cc(F)c43)c(C)c12 (single isomer, unassigned) [compound 181]
 |  |  | 0.09 µM | 100.00 µM | 0.13 µM | C[C@H](NC(=O)[C@@H](C)c1c(C(F)(F)F)c2cc(F)ccc2[nH]c1=O)c1ccc(F)cc1F (single isomer, unassigned) [compound 99]
 |  |  | 0.11 µM | 0.21 µM | 0.29 µM | CCc1c(CC(=O)N[C@@H](C)c2ncc(C#N)cn2)c(=O)[nH]c2ccc(F)c(C)c12 (single isomer, unassigned) [compound 2002]
3.42 µM | 3.42 µM | 100.00 µM |  |  |  | Cc1nccc2[nH]c(=O)c(CC(=O)N[C@@H](C)c3cnc(C#N)cn3)c(C)c12 [compound 487]
100.00 µM | 100.00 µM | 100.00 µM |  |  |  | Cc1nccc2[nH]c(=O)c(CC(=O)N[C@H](CO)c3ccccn3)c(C)c12 (single isomer, unassigned) [compound 316]

Reference: patent US12448369B2 (Edgewise Therapeutics, Inc., priority 2023, dated 2025)
